Values quoted from earlier work as cited in US11554108B2, “Methods and compositions for treating cutaneous fungal infections” (Xeropedix, Inc., priority 2016, dated 2023).
Values after ≈ are worked out from the molar mass of the structure shown. Read-outs that look alike come from different tables or passages of the source.

What was measured:
[1] = not given; remark: listed apart in the source
[2] = molecular target: transient receptor potential vanilloid 1 (TRPV1) cation channel (Homo sapiens, UniProt Q8NER1); conditions: lowered from approximately 42° C.
Sequence of transient receptor potential vanilloid 1 (TRPV1) cation channel (Q8NER1 whole entry): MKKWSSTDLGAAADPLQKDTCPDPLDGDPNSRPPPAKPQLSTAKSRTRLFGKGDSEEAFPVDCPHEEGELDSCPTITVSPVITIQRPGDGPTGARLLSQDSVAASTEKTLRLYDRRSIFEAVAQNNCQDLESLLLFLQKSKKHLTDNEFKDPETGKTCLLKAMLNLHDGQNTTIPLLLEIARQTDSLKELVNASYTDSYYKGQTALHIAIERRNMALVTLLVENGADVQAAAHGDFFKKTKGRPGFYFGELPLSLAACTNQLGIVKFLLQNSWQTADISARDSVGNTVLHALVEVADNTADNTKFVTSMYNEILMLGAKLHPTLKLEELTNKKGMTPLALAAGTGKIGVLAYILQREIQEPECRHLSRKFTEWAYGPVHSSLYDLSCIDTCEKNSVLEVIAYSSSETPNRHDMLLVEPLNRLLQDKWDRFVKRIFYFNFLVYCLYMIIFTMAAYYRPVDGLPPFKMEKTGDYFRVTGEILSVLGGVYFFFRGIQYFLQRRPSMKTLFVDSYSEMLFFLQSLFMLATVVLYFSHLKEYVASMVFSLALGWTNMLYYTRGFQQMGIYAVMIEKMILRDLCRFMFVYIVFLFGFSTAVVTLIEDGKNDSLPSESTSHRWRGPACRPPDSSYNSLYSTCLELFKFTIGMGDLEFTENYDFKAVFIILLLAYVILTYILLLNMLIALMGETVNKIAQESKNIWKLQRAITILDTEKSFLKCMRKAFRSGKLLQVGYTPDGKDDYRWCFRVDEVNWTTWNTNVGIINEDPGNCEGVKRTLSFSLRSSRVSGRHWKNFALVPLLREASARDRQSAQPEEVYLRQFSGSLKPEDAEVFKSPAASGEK

## aluminum chlorohydrate
Tinea pedis; in vivo
  effectiveness against tinea pedis relative to aluminum chloride: less effective than aluminum chloride

## CN(C/C=C/C#CC(C)(C)C)Cc1cccc2ccccc12 [terbinafine]
Ethanol gel compared to a standard cream formulation
  rate of absorption, maximum concentration, and half-life in the skin: improve
In vivo, ethanol solution compared to isopropyl myristate solution
  percutaneous terbinafine absorption: enhanced
[1]; 24 hours after a single application of 1% terbinafine cream
  stratum corneum concentration: 37 ng/cm^2
[1]; 24 hours after application of 1% terbinafine cream, converted with 1 ng/cm^2=4 μg/ml
  concentration of terbinafine in the stratum corneum: approximately 148 μg/ml
T. rubrum
  minimum fungicidal concentration against T. rubrum: 3 ng/mL (≈ 0.0103 µM)

## [Cl][Al]([Cl])[Cl] [aluminum chloride]
T. mentagrophytes; 10% aluminum chloride, equal to 100,000 μg/ml
  inhibition of T. mentagrophytes in an in vitro MIC test: no inhibition
T. mentagrophytes; 20% aluminum chloride, equal to 200,000 μg/ml
  inhibition of T. mentagrophytes in an in vitro MIC test: inhibited the fungus
Tinea pedis; 30% aluminum chloride solution
  reduction of unpleasant symptoms of tinea pedis: effective at reducing unpleasant symptoms
  resolution of the infection: did not resolve the infection entirely

## CCO [Ethanol]
[2]
  threshold temperature at which TRPV1 signals excessive heat: 34 °C
